# Measurements reported in patent US20170239249A1, “QUINAZOLINE-BASED KINASE INHIBITORS” (Bristol-Myers Squibb Company, priority 2014, published 2017).
# Target: AAK1 (full length human) (Homo sapiens, UniProt Q2M2I8)
# Assay: HEK281 Cell-Based Assay (phospho-mu2 Western blot in HEK293F cells transfected with AAK1 and AP2M1)
# Conditions: IC50 (nM), functional potency; inhibition of mu2 phosphorylation in HEK293F cells, 3 hours incubation, 5 concentrations
# Chain of AAK1 (full length human) (Q2M2I8 1-863 isoform Q2M2I8-2): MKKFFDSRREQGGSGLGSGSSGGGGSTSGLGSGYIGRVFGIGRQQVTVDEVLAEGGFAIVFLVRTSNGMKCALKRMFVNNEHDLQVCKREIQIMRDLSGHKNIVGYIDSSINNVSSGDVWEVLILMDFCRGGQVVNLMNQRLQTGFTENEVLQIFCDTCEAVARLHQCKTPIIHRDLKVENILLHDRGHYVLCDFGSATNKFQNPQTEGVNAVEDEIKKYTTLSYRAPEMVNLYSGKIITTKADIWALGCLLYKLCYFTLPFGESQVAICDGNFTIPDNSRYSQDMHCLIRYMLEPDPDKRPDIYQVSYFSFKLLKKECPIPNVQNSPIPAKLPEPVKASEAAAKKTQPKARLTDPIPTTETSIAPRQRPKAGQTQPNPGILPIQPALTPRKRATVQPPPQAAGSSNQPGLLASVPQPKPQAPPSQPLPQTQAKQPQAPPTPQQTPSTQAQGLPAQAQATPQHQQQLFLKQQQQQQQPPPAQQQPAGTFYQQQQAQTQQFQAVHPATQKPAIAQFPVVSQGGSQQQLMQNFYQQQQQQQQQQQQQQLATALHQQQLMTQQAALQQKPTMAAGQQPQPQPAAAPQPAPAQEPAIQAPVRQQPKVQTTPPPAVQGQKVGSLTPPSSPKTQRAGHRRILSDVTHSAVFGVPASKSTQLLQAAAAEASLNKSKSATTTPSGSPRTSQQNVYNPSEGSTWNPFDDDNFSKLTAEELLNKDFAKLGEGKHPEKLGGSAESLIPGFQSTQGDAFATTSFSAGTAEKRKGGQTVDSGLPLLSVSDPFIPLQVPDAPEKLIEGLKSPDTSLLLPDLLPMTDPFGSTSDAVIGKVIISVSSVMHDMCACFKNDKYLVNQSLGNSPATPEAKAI
row,SMILES,IC50 [nM]
1,"CCc1nc(C(N)C2CCCCC2)nc2ccc(-c3ccncc3)cc12 (single isomer, unassigned; (+)) [Example 8, (+)-Cyclohexyl(4-ethyl-6-(pyridin-4-yl)quinazolin-2-yl)methanamine]",61
2,"CCc1nc(C(N)C2CCCCC2)nc2ccc(-c3ccncc3)cc12 (single isomer, unassigned; (-)) [Example 7, (−)-Cyclohexyl(4-ethyl-6-(pyridin-4-yl)quinazolin-2-yl)methanamine]",8
3,"CCc1nc(C(N)CC(C)C)nc2cc(OC)c(-c3cnco3)cc12 (single isomer, unassigned; enantiomer 1) [Example 86, 1-(4-Ethyl-7-methoxy-6-(oxazol-5-yl)quinazolin-2-yl)-3-methylbutan-1-amine (Enantiomer 1)]",87
4,"CCc1nc(C(N)CC(C)C)nc2cc(OC)c(-c3cnco3)cc12 (single isomer, unassigned; enantiomer 2) [Example 87, 1-(4-Ethyl-7-methoxy-6-(oxazol-5-yl)quinazolin-2-yl)-3-methylbutan-1-amine (Enantiomer 2)]",13
5,"CC(C)CC(N)c1ncc2cc(-c3cnco3)ccc2n1 (stereo not shown) [Example 1, 3-Methyl-1-(6-(oxazol-5-yl)quinazolin-2-yl)butan-1-amine]",420
6,"Cc1nc(C(N)CC(C)C)nc2ccc(-c3cnco3)cc12 (stereo not shown) [Example 2, 3-Methyl-1-(4-methyl-6-(oxazol-5-yl)quinazolin-2-yl)butan-1-amine]",170
7,"CCc1nc(C(N)CC(C)C)nc2ccc(-c3cnco3)cc12 (stereo not shown) [Example 3, 1-(4-Ethyl-6-(oxazol-5-yl)quinazolin-2-yl)-3-methylbutan-1-amine]",77
8,"CCCc1nc(C(N)CC(C)C)nc2ccc(-c3cnco3)cc12 (stereo not shown) [Example 4, 3-Methyl-1-(6-(oxazol-5-yl)-4-propylquinazolin-2-yl)butan-1-amine]",5300
9,"CCc1nc(C(N)CC(C)C)nc2c(OC)cc(-c3cnco3)cc12 (stereo not shown) [Example 5, 1-(4-Ethyl-8-methoxy-6-(oxazol-5-yl)quinazolin-2-yl)-3-methylbutan-1-amine]",75
10,"CCc1nc(C(N)CC(C)C)nc2ccc(-c3ccncc3OC)cc12 (stereo not shown) [Example 6, 1-(4-Ethyl-6-(3-methoxypyridin-4-yl)quinazolin-2-yl)-3-methylbutan-1-amine]",36
11,"CCc1nc(C(N)CC2CCCCC2)nc2ccc(-c3ccncc3)cc12 (stereo not shown) [Example 9, 2-Cyclohexyl-1-(4-ethyl-6-(pyridin-4-yl)quinazolin-2-yl)ethanamine]",260
12,"CCc1nc(CCC2CCCC2)nc2ccc(-c3ccncc3)cc12 [Example 10, 2-(2-Cyclopentylethyl)-4-ethyl-6-(pyridin-4-yl)quinazoline]",4800
13,"COc1c(-c2cnco2)ccc2nc(C(N)CC(C)C)ncc12 (stereo not shown) [Example 11, 1-(5-Methoxy-6-(oxazol-5-yl)quinazolin-2-yl)-3-methylbutan-1-amine]",360
14,"CC(C)CC(N)c1nc2ccc(-c3cnco3)cc2c(=O)[nH]1 (stereo not shown) [Example 12, 2-(1-Amino-3-methylbutyl)-6-(oxazol-5-yl)quinazolin-4-ol]",140
15,"CC(C)CC(N)c1nc2ccc(-c3ccncc3)cc2c(=O)[nH]1 (stereo not shown) [Example 13, 2-(1-Amino-3-methylbutyl)-6-(pyridin-4-yl)quinazolin-4-ol]",93
16,"COc1nc(C(N)CC(C)C)nc2ccc(-c3cnco3)cc12 (stereo not shown) [Example 14, 1-(4-Methoxy-6-(oxazol-5-yl)quinazolin-2-yl)-3-methylbutan-1-amine]",230
17,"CCOc1nc(C(N)CC(C)C)nc2ccc(-c3cnco3)cc12 (stereo not shown) [Example 15, 1-(4-Ethoxy-6-(oxazol-5-yl)quinazolin-2-yl)-3-methylbutan-1-amine]",410

row,SMILES,IC50 [nM]
1,"CNc1nc(C(N)CC(C)C)nc2ccc(-c3cnco3)cc12 (stereo not shown) [Example 16, 2-(1-Amino-3-methylbutyl)-N-methyl-6-(oxazol-5-yl)quinazolin-4-amine]",210
2,"CC(C)CC(N)c1nc(N(C)C)c2cc(-c3cnco3)ccc2n1 (stereo not shown) [Example 17, 2-(1-Amino-3-methylbut)-N,N-dimethyl-6-(oxazol-5-yl)quinazolin-4-amine]",360
3,"CCN(CC)c1nc(C(N)CC(C)C)nc2ccc(-c3cnco3)cc12 (stereo not shown) [Example 18, 2-(1-Amino-3-methylbutyl)-N,N-diethyl-6-(oxazol-5-yl)quinazolin-4-amine]",130
4,"CC(C)CC(N)c1nc(N2CCCC2)c2cc(-c3cnco3)ccc2n1 (stereo not shown) [Example 19, 3-Methyl-1-(6-(oxazol-5-yl)-4-(pyrrolidin-1-yl)quinazolin-2-yl)butan-1-amine]",760
5,"CCNc1nc(C(N)CC(C)C)nc2ccc(-c3cnco3)cc12 (stereo not shown) [Example 20, 2-(1-Amino-3-methylbutyl)-N-ethyl-6-(oxazol-5-yl)quinazolin-4-amine]",850
6,"CC(C)CC(N)c1nc(NCCO)c2cc(-c3cnco3)ccc2n1 (stereo not shown) [Example 21, 2-((2-(1-Amino-3-methylbutyl)-6-(oxazol-5-yl)quinazolin-4-yl)amino)ethanol]",1200
7,"COCCNc1nc(C(N)CC(C)C)nc2ccc(-c3cnco3)cc12 (stereo not shown) [Example 22, 2-(1-Amino-3-methylbutyl)-N-(2-methoxyethyl)-6-(oxazol-5-yl)quinazolin-4-amine]",1300
8,"CNc1nc(C(N)CC(C)C)nc2ccc(-c3ccncc3)cc12 (stereo not shown) [Example 23, 2-(1-Amino-3-methylbutyl)-N-methyl-6-(pyridin-4-yl)quinazolin-4-amine]",79
9,"CCNc1nc(C(N)CC(C)C)nc2ccc(-c3ccncc3)cc12 (stereo not shown) [Example 24, 2-(1-Amino-3-methylbutyl)-N-ethyl-6-(pyridin-4-yl)quinazolin-4-amine]",86
10,"CCN(CC)c1nc(C(N)CC(C)C)nc2ccc(-c3ccncc3)cc12 (stereo not shown) [Example 25, 2-(1-Amino-3-methylbutyl)-N,N-diethyl-6-(pyridin-4-yl)quinazolin-4-amine]",22
11,"COc1cnccc1-c1ccc2nc(C(N)CC(C)C)nc(N(C)C)c2c1 (stereo not shown) [Example 26, 2-(1-Amino-3-methylbutyl)-6-(3-methoxypyridin-4-yl)-N,N-dimethylquinazolin-4-amine]",31
12,"CCN(CC)c1nc(C(N)CC(C)C)nc2ccc(-c3ccncc3OC)cc12 (stereo not shown) [Example 27, 2-(1-Amino-3-methylbutyl)-N,N-diethyl-6-(3-methoxypyridin-4-yl)quinazolin-4-amine]",20
13,"CCNc1nc(C(N)CC(C)C)nc2ccc(-c3ccncc3OC)cc12 (stereo not shown) [Example 28, 2-(1-Amino-3-methylbutyl)-N-ethyl-6-(3-methoxypyridin-4-yl)quinazolin-4-amine]",380
14,"COc1cnccc1-c1ccc2nc(CCC(C)C)nc(N(C)C)c2c1 [Example 29, 2-Isopentyl-6-(3-methoxypyridin-4-yl)-N,N-dimethylquinazolin-4-amine]",54
15,"CC(C)CC(N)c1nc(C#N)c2cc(-c3cnco3)ccc2n1 (stereo not shown) [Example 30, 2-(1-Amino-3-methylbutyl)-6-(oxazol-5-yl)quinazoline-4-carbonitrile]",17
16,"CC(C)CCc1nc(C#N)c2cc(-c3cnco3)ccc2n1 [Example 31, 2-Isopentyl-6-(oxazol-5-yl)quinazoline-4-carbonitrile]",640
17,"COc1cc2nc(C(N)CC(C)C)nc(C#N)c2cc1-c1cnco1 (stereo not shown) [Example 32, 2-(1-Amino-3-methylbutyl)-7-methoxy-6-(oxazol-5-yl)quinazoline-4-carbonitrile]",6
